Measurements reported in ChEMBL document CHEMBL1649203, “Pharmacokinetics and safety of famciclovir in children with herpes simplex or varicella-zoster virus infection” (Antimicrob Agents Chemother, 2009).

Columns and labels:
[1] = system: Homo sapiens; experiment: Toxicity in VZV-infected 6 to <=12 years aged pediatric patient assessed as incidence of nausea at 35.5 mg/kg, po tid; assay type: organism-based; design: dose 35.5 mg/kg, route oral; conditions: in vivo
[2] = system: Homo sapiens; experiment: Toxicity in orally dosed VZV-infected patient assessed as incidence of headache administered as tid; assay type: organism-based; conditions: in vivo, po
[3] = system: Homo sapiens; experiment: Toxicity in HSV-infected 1 to <2 years aged pediatric patient assessed as incidence of nausea at 30.9 mg/kg, po bid; assay type: organism-based; design: dose 30.9 mg/kg, route oral; conditions: in vivo
[4] = system: Homo sapiens; experiment: Toxicity in HSV-infected 2 to <6 years aged pediatric patient assessed as incidence of cough at 27.6 mg/kg, po bid; assay type: organism-based; design: dose 27.6 mg/kg, route oral; conditions: in vivo
[5] = system: Homo sapiens; experiment: Toxicity in HSV-infected 2 to <6 years aged pediatric patient assessed as pyrexia at 27.6 mg/kg, po bid; assay type: organism-based; design: dose 27.6 mg/kg, route oral; conditions: in vivo
[6] = system: Homo sapiens; experiment: Toxicity in orally dosed VZV-infected patient assessed as pyrexia administered as tid; assay type: organism-based; conditions: in vivo, po
[7] = system: Homo sapiens; experiment: Toxicity in HSV-infected 6 to <=12 years aged pediatric patient assessed as incidence of cough at 23.5 mg/kg, po bid; assay type: organism-based; design: dose 23.5 mg/kg, route oral; conditions: in vivo
[8] = system: Homo sapiens; experiment: Toxicity in HSV-infected 6 to <=12 years aged pediatric patient assessed as incidence of abdominal pain at 23.5 mg/kg, po bid; assay type: organism-based, Abdomen; design: dose 23.5 mg/kg, route oral; conditions: in vivo
[9] = system: Homo sapiens; experiment: Toxicity in HSV-infected 2 to <6 years aged pediatric patient assessed as incidence of vomiting at 27.6 mg/kg, po bid; assay type: organism-based; design: dose 27.6 mg/kg, route oral; conditions: in vivo
[10] = system: Homo sapiens; experiment: Toxicity in HSV-infected 6 to <=12 years aged pediatric patient assessed as incidence of headache at 23.5 mg/kg, po bid; assay type: organism-based; design: dose 23.5 mg/kg, route oral; conditions: in vivo
[11] = Half life in 1 to <2 years aged pediatric patient administered as single dose; assay type: ADME, organism-based; conditions: human, in vivo
[12] = Tmax in 2 to <6 years aged pediatric patient administered as single dose; assay type: ADME, organism-based; conditions: human, in vivo
[13] = system: Homo sapiens; experiment: Toxicity in HSV-infected 6 to <=12 years aged pediatric patient assessed as incidence of diarrhea at 23.5 mg/kg, po bid; assay type: organism-based; design: dose 23.5 mg/kg, route oral; conditions: in vivo
[14] = Apparent oral clearance in 6 to <=12 years aged pediatric patient administered as single dose; assay type: ADME, organism-based; conditions: human, in vivo
[15] = system: Homo sapiens; experiment: Toxicity in HSV-infected 6 to <=12 years aged pediatric patient assessed as incidence of nausea at 23.5 mg/kg, po bid; assay type: organism-based; design: dose 23.5 mg/kg, route oral; conditions: in vivo
[16] = system: Homo sapiens; experiment: Toxicity in VZV-infected 1 to <2 years aged pediatric patient assessed as at least one adverse event at 40.8 mg/kg, po tid; assay type: organism-based; design: dose 40.8 mg/kg, route oral; conditions: in vivo
[17] = system: Homo sapiens; experiment: Toxicity in VZV-infected 6 to <=12 years aged pediatric patient assessed as incidence of vomiting at 35.5 mg/kg, po tid; assay type: organism-based; design: dose 35.5 mg/kg, route oral; conditions: in vivo
[18] = system: Homo sapiens; experiment: Toxicity in orally dosed VZV-infected patient assessed as incidence of nausea administered as tid; assay type: organism-based; conditions: in vivo, po
[19] = Cmax in 2 to <6 years aged pediatric patient administered as single dose; assay type: ADME, organism-based; conditions: human, in vivo
[20] = system: Homo sapiens; experiment: Toxicity in HSV-infected 1 to <2 years aged pediatric patient assessed as at least one adverse event at 30.9 mg/kg, po bid; assay type: organism-based; design: dose 30.9 mg/kg, route oral; conditions: in vivo
[21] = system: Homo sapiens; experiment: Toxicity in VZV-infected 6 to <=12 years aged pediatric patient assessed as incidence of cellulitis at 35.5 mg/kg, po tid; assay type: organism-based; design: dose 35.5 mg/kg, route oral; conditions: in vivo
[22] = system: Homo sapiens; experiment: Toxicity in HSV-infected 2 to <6 years aged pediatric patient assessed as incidence of abdominal pain at 27.6 mg/kg, po bid; assay type: organism-based, Abdomen; design: dose 27.6 mg/kg, route oral; conditions: in vivo
[23] = system: Homo sapiens; experiment: Toxicity in orally dosed VZV-infected patient assessed as incidence of cellulitis administered as tid; assay type: organism-based; conditions: in vivo, po
[24] = system: Homo sapiens; experiment: Toxicity in VZV-infected 2 to <6 years aged pediatric patient assessed as incidence of cellulitis at 40.6 mg/kg, po tid; assay type: organism-based; design: dose 40.6 mg/kg, route oral; conditions: in vivo
[25] = Half life in 2 to <6 years aged pediatric patient administered as single dose; assay type: ADME, organism-based; conditions: human, in vivo
[26] = system: Homo sapiens; experiment: Toxicity in orally dosed HSV-infected patient assessed as pyrexia administered as bid; assay type: organism-based; conditions: in vivo, po
[27] = system: Homo sapiens; experiment: Toxicity in HSV-infected 1 to <2 years aged pediatric patient assessed as incidence of vomiting at 30.9 mg/kg, po bid; assay type: organism-based; design: dose 30.9 mg/kg, route oral; conditions: in vivo
[28] = system: Homo sapiens; experiment: Toxicity in orally dosed HSV-infected patient assessed as incidence of headache administered as bid; assay type: organism-based; conditions: in vivo, po
[29] = Half life in 6 to <=12 years aged pediatric patient administered as single dose; assay type: ADME, organism-based; conditions: human, in vivo
[30] = Tmax in 6 to <=12 years aged pediatric patient administered as single dose; assay type: ADME, organism-based; conditions: human, in vivo
[31] = system: Homo sapiens; experiment: Toxicity in HSV-infected 1 to <2 years aged pediatric patient assessed as incidence of cough at 30.9 mg/kg, po bid; assay type: organism-based; design: dose 30.9 mg/kg, route oral; conditions: in vivo
[32] = system: Homo sapiens; experiment: AUC (0 to infinity) in 2 to <6 years aged pediatric patient administered as single dose; assay type: ADME, organism-based, Plasma; design: time infinity; conditions: in vivo
[33] = system: Homo sapiens; experiment: Toxicity in VZV-infected 2 to <6 years aged pediatric patient assessed as incidence of vomiting at 40.6 mg/kg, po tid; assay type: organism-based; design: dose 40.6 mg/kg, route oral; conditions: in vivo
[34] = system: Homo sapiens; experiment: Toxicity in VZV-infected 6 to <=12 years aged pediatric patient assessed as incidence of diarrhea at 35.5 mg/kg, po tid; assay type: organism-based; design: dose 35.5 mg/kg, route oral; conditions: in vivo
[35] = system: Homo sapiens; experiment: Toxicity in HSV-infected 6 to <=12 years aged pediatric patient assessed as incidence of vomiting at 23.5 mg/kg, po bid; assay type: organism-based; design: dose 23.5 mg/kg, route oral; conditions: in vivo
[36] = system: Homo sapiens; experiment: Toxicity in VZV-infected 2 to <6 years aged pediatric patient assessed as incidence of pruritus at 40.6 mg/kg, po tid; assay type: organism-based; design: dose 40.6 mg/kg, route oral; conditions: in vivo
[37] = system: Homo sapiens; experiment: Toxicity in HSV-infected 6 to <=12 years aged pediatric patient assessed as pyrexia at 23.5 mg/kg, po bid; assay type: organism-based; design: dose 23.5 mg/kg, route oral; conditions: in vivo
[38] = system: Homo sapiens; experiment: Toxicity in VZV-infected 6 to <=12 years aged pediatric patient assessed as incidence of abdominal pain at 35.5 mg/kg, po tid; assay type: organism-based, Abdomen; design: dose 35.5 mg/kg, route oral; conditions: in vivo
[39] = system: Homo sapiens; experiment: Toxicity in HSV-infected 2 to <6 years aged pediatric patient assessed as incidence of diarrhea at 27.6 mg/kg, po bid; assay type: organism-based; design: dose 27.6 mg/kg, route oral; conditions: in vivo
[40] = system: Homo sapiens; experiment: Toxicity in VZV-infected 6 to <=12 years aged pediatric patient assessed as incidence of pruritus at 35.5 mg/kg, po tid; assay type: organism-based; design: dose 35.5 mg/kg, route oral; conditions: in vivo
[41] = system: Homo sapiens; experiment: AUC (0 to infinity) in 6 to <=12 years aged pediatric patient administered as single dose; assay type: ADME, organism-based, Plasma; design: time infinity; conditions: in vivo
[42] = system: Homo sapiens; experiment: Toxicity in VZV-infected 2 to <6 years aged pediatric patient assessed as incidence of abdominal pain at 40.6 mg/kg, po tid; assay type: organism-based, Abdomen; design: dose 40.6 mg/kg, route oral; conditions: in vivo
[43] = system: Homo sapiens; experiment: Toxicity in orally dosed HSV-infected patient assessed as incidence of cough administered as bid; assay type: organism-based; conditions: in vivo, po

## Nc1nc2c(ncn2CCC(CO)CO)c(=O)[nH]1 [PENCICLOVIR]
[1]
  Activity: 6.3%
[2]
  Activity: 3.8%
[3]
  Activity: 7.7%
[4]
  Activity: 6.3%
[5]
  Activity: 0%
[6]
  Activity: 7.5%
[7]
  Activity: 5.6%
[8]
  Activity: 5.6%
[9]
  Activity: 6.3%
[10]
  Activity: 22.2%
[11]
  half-life: 1.2 h
[12]
  Tmax: 1.07 h
[13]
  Activity: 11.1%
[14]
  CL/F: 578 mL/min
[15]
  Activity: 11.1%
[16]
  Activity: 38.9%
[17]
  Activity: 0%
[18]
  Activity: 3.8%
[19]
  Cmax: 2780 ng/mL
[20]
  Activity: 42.2%
[21]
  Activity: 6.3%
[22]
  Activity: 6.3%
[23]
  Activity: 3.8%
[24]
  Activity: 5.3%
[25]
  half-life: 1.28 h
[26]
  Activity: 4.3%
[27]
  Activity: 15.4%
[28]
  Activity: 8.5%
[29]
  half-life: 1.62 h
[30]
  Tmax: 1 h
[31]
  Activity: 7.7%
[32]
  AUC: 7.23 ug/hr.ml
[33]
  Activity: 0%
[34]
  Activity: 18.8%
[35]
  Activity: 11.1%
[36]
  Activity: 0%
[37]
  Activity: 0%
[38]
  Activity: 12.5%
[39]
  Activity: 6.3%
[40]
  Activity: 6.3%
[41]
  AUC: 9.33 ug/hr.ml
[42]
  Activity: 0%
[43]
  Activity: 6.4%
